According to ChEMBL document CHEMBL3132769, “Fragment growing to retain or alter the selectivity of anchored kinase hinge-binding fragments” (Medchemcomm, 2014):

Tests used:
[1] = biological target: T1, Serine/threonine-protein kinase Sgk3 (Homo sapiens) (UniProt Q96BR1); assay: Inhibition of human full length SGK3 expressed in baculovirus assessed as substrate phosphorylation using fluorescence-labelled peptides as substrate at 420 uM after 90 mins by microfluidic peptide phosphorylation assay
T1 sequence (whole entry): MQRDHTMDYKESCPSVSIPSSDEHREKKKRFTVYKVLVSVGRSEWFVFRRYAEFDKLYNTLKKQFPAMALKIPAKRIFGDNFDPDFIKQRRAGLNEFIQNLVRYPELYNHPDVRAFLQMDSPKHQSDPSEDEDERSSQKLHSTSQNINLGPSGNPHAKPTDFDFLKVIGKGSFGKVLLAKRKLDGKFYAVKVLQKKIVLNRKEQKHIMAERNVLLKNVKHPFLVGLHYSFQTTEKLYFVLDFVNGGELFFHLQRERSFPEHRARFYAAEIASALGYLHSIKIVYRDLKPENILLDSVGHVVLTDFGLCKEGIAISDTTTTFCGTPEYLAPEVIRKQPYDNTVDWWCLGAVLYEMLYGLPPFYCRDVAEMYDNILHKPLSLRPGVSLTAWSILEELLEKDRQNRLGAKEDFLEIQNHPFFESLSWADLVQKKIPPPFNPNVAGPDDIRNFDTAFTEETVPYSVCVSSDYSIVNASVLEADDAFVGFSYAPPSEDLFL

[2] = biological target: Protein kinase C eta type (Homo sapiens) (UniProt P24723); assay: Inhibition of human truncated PKC eta expressed in baculovirus assessed as substrate phosphorylation using fluorescence-labelled peptides as substrate at 420 uM after 90 mins by microfluidic peptide phosphorylation assay
Protein kinase C eta type (Homo sapiens), sequence (P24723 whole entry, the tested form may be a part): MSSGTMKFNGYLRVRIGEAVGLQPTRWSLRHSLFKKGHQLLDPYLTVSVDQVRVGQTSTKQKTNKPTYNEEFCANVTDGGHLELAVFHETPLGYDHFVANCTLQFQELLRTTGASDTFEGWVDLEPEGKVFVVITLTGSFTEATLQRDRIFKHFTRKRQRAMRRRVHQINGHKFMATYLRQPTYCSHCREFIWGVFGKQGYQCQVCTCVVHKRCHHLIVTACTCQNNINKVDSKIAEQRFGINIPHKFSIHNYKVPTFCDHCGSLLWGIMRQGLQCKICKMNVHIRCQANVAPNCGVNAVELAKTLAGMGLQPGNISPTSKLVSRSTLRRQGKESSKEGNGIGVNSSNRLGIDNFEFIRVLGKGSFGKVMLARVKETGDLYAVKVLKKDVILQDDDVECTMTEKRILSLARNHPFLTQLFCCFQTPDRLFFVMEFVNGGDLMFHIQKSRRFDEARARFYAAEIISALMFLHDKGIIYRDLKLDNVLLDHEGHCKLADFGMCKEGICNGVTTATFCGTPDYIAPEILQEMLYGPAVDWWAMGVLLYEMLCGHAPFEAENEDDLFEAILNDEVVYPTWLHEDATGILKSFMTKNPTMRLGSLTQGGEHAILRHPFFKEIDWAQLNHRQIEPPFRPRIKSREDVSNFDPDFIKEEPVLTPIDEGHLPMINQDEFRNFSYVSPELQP

[3] = biological target: Tyrosine-protein kinase BTK (Homo sapiens) (UniProt Q06187); assay: Inhibition of human full length BTK expressed in baculovirus assessed as substrate phosphorylation using fluorescence-labelled peptides as substrate at 2 uM after 90 mins by microfluidic peptide phosphorylation assay
Tyrosine-protein kinase BTK (Homo sapiens), sequence (Q06187 whole entry): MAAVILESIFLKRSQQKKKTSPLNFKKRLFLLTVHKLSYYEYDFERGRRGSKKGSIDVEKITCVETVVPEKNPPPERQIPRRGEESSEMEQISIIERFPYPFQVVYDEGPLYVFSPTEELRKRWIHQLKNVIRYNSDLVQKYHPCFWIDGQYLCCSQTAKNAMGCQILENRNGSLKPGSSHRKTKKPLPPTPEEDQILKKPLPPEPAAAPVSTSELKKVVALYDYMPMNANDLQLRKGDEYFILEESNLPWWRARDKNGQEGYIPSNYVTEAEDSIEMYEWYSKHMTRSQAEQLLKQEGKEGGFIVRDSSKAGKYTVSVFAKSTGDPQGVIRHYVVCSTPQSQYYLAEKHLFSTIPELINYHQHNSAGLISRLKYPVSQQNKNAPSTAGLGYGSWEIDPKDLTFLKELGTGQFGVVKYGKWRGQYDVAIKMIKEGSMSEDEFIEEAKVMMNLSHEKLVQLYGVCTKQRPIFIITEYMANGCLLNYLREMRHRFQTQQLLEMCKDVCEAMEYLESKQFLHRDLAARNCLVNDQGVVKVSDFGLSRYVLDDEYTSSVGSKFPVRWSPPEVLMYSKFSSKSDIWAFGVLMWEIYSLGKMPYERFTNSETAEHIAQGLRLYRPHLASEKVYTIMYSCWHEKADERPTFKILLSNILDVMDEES

[4] = biological target: Cyclin-dependent kinase 2 (Homo sapiens) (UniProt P24941); assay: Inhibition of human full length CDK2 expressed in baculovirus assessed as substrate phosphorylation using fluorescence-labelled peptides as substrate at 2 uM after 90 mins by microfluidic peptide phosphorylation assay
[5] = biological target: Casein kinase I isoform alpha (Homo sapiens) (UniProt P48729); assay: Inhibition of human full length CSNK1A1 expressed in baculovirus assessed as substrate phosphorylation using fluorescence-labelled peptides as substrate at 0.1 uM after 90 mins by microfluidic peptide phosphorylation assay
Casein kinase I isoform alpha (Homo sapiens), sequence (P48729 2-337 limits assumed): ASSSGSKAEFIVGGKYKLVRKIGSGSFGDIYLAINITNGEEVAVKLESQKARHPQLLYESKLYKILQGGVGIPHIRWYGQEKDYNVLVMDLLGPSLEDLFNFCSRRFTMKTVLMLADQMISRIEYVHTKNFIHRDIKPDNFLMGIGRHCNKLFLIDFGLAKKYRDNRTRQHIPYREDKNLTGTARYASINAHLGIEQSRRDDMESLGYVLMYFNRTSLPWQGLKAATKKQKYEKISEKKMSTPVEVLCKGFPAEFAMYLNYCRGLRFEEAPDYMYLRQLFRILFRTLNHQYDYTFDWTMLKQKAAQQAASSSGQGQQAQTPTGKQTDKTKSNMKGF

[6] = biological target: T2, MAP kinase p38 (Homo sapiens) (UniProt O15264+Q15759+Q16539+P53778); details: 0.1 uM
Description: Inhibition of human full length p38 beta2 expressed in Escherichia coli cell assessed as substrate phosphorylation using fluorescence-labelled peptides as substrate at 0.1 uM after 90 mins by microfluidic peptide phosphorylation assay

[7] = biological target: T2, MAP kinase p38 (Homo sapiens); assay: Inhibition of human full length p38 beta2 expressed in Escherichia coli cell assessed as substrate phosphorylation using fluorescence-labelled peptides as substrate at 95 uM after 90 mins by microfluidic peptide phosphorylation assay
[8] = biological target: Mitogen-activated protein kinase 14 (Homo sapiens) (UniProt Q16539); assay: Inhibition of human truncated p38 alpha expressed in Escherichia coli cell assessed as substrate phosphorylation using fluorescence-labelled peptides as substrate at 95 uM after 90 mins by microfluidic peptide phosphorylation assay
Mitogen-activated protein kinase 14 (Homo sapiens), sequence (Q16539 whole entry, the tested form may be a part): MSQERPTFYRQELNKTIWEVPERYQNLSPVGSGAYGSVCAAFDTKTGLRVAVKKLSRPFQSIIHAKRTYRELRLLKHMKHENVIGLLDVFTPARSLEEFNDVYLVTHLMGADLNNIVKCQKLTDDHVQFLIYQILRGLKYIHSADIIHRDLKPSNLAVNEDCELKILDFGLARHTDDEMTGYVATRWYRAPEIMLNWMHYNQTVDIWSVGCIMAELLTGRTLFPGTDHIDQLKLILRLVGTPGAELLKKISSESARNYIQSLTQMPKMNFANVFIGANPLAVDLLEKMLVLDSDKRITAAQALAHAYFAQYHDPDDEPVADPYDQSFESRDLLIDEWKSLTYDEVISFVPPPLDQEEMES

[9] = biological target: T3, Interleukin-1 receptor-associated kinase 4 (Homo sapiens) (UniProt Q9NWZ3); assay: Inhibition of human IRAK4 catalytic domain expressed in baculovirus assessed as substrate phosphorylation using fluorescence-labelled peptides as substrate at 95 uM after 90 mins by microfluidic peptide phosphorylation assay
T3 sequence (whole entry): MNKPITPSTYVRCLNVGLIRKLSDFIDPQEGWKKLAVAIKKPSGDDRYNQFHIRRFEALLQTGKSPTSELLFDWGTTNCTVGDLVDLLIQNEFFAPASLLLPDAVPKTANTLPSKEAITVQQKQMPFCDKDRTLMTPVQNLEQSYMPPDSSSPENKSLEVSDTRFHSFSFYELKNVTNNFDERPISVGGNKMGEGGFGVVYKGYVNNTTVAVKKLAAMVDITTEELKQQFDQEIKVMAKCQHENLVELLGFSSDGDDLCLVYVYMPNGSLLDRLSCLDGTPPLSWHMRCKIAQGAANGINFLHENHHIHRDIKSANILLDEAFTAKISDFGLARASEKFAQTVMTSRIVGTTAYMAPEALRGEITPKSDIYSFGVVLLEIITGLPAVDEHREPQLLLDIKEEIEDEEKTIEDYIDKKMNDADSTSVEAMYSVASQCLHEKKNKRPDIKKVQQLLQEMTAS

[10] = tested on: Tyrosine-protein kinase ABL1 (Homo sapiens), P00519 [Q252H]; assay: Inhibition of human truncated ABL Q252H mutant expressed in baculovirus assessed as substrate phosphorylation using fluorescence-labelled peptides as substrate at 95 uM after 90 mins by microfluidic peptide phosphorylation assay
[11] = biological target: T1, Serine/threonine-protein kinase Sgk3 (Homo sapiens); assay: Inhibition of human full length SGK3 expressed in baculovirus assessed as substrate phosphorylation using fluorescence-labelled peptides as substrate at […] after 90 mins by microfluidic peptide phosphorylation assay
[12] = biological target: Serine/threonine-protein kinase pim-1 (Homo sapiens) (UniProt P11309); assay: Inhibition of human full length PIM1 expressed in baculovirus assessed as substrate phosphorylation using fluorescence-labelled peptides as substrate at 0.06 uM after 90 mins by microfluidic peptide phosphorylation assay
Serine/threonine-protein kinase pim-1 (Homo sapiens), sequence (P11309 whole entry, looked up): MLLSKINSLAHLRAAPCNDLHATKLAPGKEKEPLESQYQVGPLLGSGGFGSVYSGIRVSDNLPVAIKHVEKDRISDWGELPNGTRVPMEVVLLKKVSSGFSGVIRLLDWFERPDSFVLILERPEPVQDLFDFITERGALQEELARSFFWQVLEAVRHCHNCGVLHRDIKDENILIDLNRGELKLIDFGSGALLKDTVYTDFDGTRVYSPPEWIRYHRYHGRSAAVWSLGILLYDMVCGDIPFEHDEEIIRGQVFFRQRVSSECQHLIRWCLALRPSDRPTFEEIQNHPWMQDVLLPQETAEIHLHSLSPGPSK

[13] = biological target: T4, Aurora kinase C (Homo sapiens) (UniProt Q9UQB9); assay: Inhibition of human full length AurC expressed in baculovirus assessed as substrate phosphorylation using fluorescence-labelled peptides as substrate at 8 uM after 90 mins by microfluidic peptide phosphorylation assay
T4 sequence (whole entry): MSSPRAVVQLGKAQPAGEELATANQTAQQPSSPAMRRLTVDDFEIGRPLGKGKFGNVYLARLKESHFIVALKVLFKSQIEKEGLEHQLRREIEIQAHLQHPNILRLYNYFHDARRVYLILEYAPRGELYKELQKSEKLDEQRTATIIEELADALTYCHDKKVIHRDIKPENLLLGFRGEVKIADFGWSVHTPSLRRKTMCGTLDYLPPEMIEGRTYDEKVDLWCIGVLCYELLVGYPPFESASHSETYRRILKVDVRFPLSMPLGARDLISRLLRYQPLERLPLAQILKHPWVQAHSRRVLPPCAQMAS

[14] = biological target: Serine/threonine-protein kinase MARK2 (Homo sapiens) (UniProt Q7KZI7); assay: Inhibition of human full length MARK2 expressed in baculovirus assessed as substrate phosphorylation using fluorescence-labelled peptides as substrate at 8 uM after 90 mins by microfluidic peptide phosphorylation assay
Serine/threonine-protein kinase MARK2 (Homo sapiens), sequence (Q7KZI7 whole entry): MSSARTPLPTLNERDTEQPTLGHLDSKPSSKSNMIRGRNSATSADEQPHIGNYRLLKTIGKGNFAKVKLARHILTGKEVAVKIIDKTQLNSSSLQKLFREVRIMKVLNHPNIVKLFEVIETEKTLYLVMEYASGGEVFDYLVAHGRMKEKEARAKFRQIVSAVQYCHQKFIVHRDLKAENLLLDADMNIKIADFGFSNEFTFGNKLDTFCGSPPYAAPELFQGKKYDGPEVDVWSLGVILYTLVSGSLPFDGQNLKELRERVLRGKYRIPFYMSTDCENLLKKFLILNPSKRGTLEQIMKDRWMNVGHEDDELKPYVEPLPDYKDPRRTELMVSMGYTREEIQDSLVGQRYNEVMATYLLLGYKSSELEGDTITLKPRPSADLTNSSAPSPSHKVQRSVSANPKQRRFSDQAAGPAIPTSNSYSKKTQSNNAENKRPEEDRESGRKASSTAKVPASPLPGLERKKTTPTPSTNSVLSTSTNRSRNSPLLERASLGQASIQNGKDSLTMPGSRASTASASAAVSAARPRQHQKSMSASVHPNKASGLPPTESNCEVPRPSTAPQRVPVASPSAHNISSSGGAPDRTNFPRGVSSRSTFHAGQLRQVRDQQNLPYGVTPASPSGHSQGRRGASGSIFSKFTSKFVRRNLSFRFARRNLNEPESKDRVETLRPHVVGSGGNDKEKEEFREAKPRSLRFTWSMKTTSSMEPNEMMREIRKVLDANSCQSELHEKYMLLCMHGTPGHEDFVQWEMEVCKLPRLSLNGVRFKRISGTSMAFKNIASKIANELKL

[15] = biological target: Ribosomal protein S6 kinase alpha-2 (Homo sapiens) (UniProt Q15349); assay: Inhibition of human full length RSK3 expressed in baculovirus assessed as substrate phosphorylation using fluorescence-labelled peptides as substrate at 8 uM after 90 mins by microfluidic peptide phosphorylation assay
Ribosomal protein S6 kinase alpha-2 (Homo sapiens), sequence (Q15349 whole entry, the tested form may be a part): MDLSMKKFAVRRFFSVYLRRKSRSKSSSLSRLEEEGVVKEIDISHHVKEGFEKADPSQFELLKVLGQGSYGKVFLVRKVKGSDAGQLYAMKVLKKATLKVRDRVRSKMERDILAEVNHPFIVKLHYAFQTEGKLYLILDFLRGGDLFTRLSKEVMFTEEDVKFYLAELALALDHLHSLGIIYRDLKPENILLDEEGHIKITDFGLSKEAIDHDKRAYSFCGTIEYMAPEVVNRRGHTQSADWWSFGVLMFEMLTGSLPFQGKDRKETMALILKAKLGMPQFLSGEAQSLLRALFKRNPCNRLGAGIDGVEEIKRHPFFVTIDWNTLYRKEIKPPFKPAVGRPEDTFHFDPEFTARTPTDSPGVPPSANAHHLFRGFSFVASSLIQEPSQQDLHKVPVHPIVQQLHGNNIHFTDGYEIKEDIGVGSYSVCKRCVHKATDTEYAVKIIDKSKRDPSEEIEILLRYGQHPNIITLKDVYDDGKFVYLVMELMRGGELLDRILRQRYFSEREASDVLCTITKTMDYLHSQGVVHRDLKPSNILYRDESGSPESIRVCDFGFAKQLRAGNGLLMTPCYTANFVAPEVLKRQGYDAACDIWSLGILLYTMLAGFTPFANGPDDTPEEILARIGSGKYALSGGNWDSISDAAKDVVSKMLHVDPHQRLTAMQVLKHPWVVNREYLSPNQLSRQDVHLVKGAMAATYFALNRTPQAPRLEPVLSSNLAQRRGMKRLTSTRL

[16] = tested on: Tyrosine-protein kinase ABL1 (Homo sapiens), P00519 [H396P]; assay: Inhibition of human truncated ABL H396P mutant expressed in baculovirus assessed as substrate phosphorylation using fluorescence-labelled peptides as substrate at 70 uM after 90 mins by microfluidic peptide phosphorylation assay

## c1nc(N2CCOCC2)c2nc[nH]c2n1
[1]
  inhibition: 63%
[2]
  inhibition: 82%

## NC1CCN(c2ncnc3[nH]ccc23)CC1
[3]
  inhibition: 0.5%
[4]
  inhibition: 0%

## C[C@H](CN(C)C)Oc1nc(Nc2cc3cccc(Cl)c3cn2)cnc1C#N
[5]
  inhibition: 2.5%
[6]
  inhibition: 0%

## NCCc1ccc(-c2ncnc3[nH]cnc23)cc1
[7]
  inhibition: 11%
[8]
  inhibition: 6.5%
[9]
  inhibition: 34%
[10]
  inhibition: 67.5%

## COC(=O)c1cnc(Nc2cnc(C#N)cn2)cc1NCC1CCNCC1
[11]
  inhibition: 5%

## NC1(Cc2ccc(Cl)cc2)CCN(c2ncnc3[nH]ccc23)CC1
[12]
  inhibition: 0%

## NCC1CCN(c2ncnc3[nH]ccc23)CC1
[13]
  inhibition: 34%
[14]
  inhibition: 37%
[15]
  inhibition: 28%

## CNCc1ccc(-c2ncnc3[nH]cnc23)cc1
[16]
  inhibition: 42.5%
